Assay results: the NIST ThermoML archive (doi:10.1016/j.jct.2017.07.006)

How the values were obtained:
[1] = Liquid; for thermal conductivity: 101.33 kPa, Laser flash apparatus; for Critical pressure / Critical temperature: Resistive pulse heating
[2] = molar heat capacity at constant pressure; details: 101.33 kPa, Liquid, DSC

CCCCCCCC(=O)OCC(COC(=O)CCCCCCC)OC(=O)CCCCCCC [1,2,3-propanetriol trioctanoate]
Details | molar heat capacity at constant pressure, [2] [J/K/mol] | thermal conductivity, [1] [W/m/K]
315 K | 913.3 | 0.152
320 K | 921 | 0.152
325 K | 928.5 | 0.151
330 K | 935.9 | 0.151
335 K | 943.1 | 0.151
340 K | 950.2 | 0.15
345 K | 957.1 | 0.15
350 K | 964 | 0.15
355 K | 970.7 | 0.149
360 K | 977.4 | 0.149
365 K | 984.1 | 0.148
370 K | 990.7 | 0.148
375 K | 997.2 | 0.147
380 K | 1004 | 0.146
385 K | 1010 | 0.146
390 K | 1017 | 0.145
395 K | 1024 | 0.145
400 K | 1030 | 0.144
405 K | 1037 | 0.144
410 K | 1044 | 0.143
415 K | 1051 | 0.142
420 K | 1058 | 0.142
425 K | 1065 | 0.141

[1]
Details | Critical pressure [kPa] | Critical temperature [K]
– | 830 | 836

CCCCCCCCCCCCCC(=O)OCC(COC(=O)CCCCCCCCCCCCC)OC(=O)CCCCCCCCCCCCC [1,2,3-propanetriyl tri(tetradecanoate)]
Details | molar heat capacity at constant pressure, [2] [J/K/mol] | thermal conductivity, [1] [W/m/K]
350 K | 1547 | 0.171
355 K | 1557 | 0.17
360 K | 1568 | 0.17
365 K | 1580 | 0.169
370 K | 1592 | 0.169
375 K | 1606 | 0.168
380 K | 1619 | 0.168
385 K | 1632 | 0.168
390 K | 1645 | 0.167
395 K | 1657 | 0.167
400 K | 1668 | 0.166
405 K | 1678 | 0.165
410 K | 1686 | 0.164

[1]
Details | Critical pressure [kPa] | Critical temperature [K]
– | 610 | 925

CCCCCCCCCC(=O)OCC(COC(=O)CCCCCCCCC)OC(=O)CCCCCCCCC [1,2,3-propanetriyl tridecanoate]
Details | molar heat capacity at constant pressure, [2] [J/K/mol] | thermal conductivity, [1] [W/m/K]
320 K | 1093 | 0.153
325 K | 1106 | 0.153
330 K | 1117 | 0.153
335 K | 1128 | 0.153
340 K | 1139 | 0.153
345 K | 1148 | 0.153
350 K | 1157 | 0.152
355 K | 1166 | 0.152
360 K | 1174 | 0.151
365 K | 1182 | 0.15
370 K | 1189 | 0.15
375 K | 1196 | 0.15
380 K | 1203 | 0.149
385 K | 1209 | 0.148
390 K | 1216 | 0.147
395 K | 1222 | 0.147
400 K | 1228 | 0.146
405 K | 1235 | 0.145
410 K | 1241 | 0.144
415 K | 1248 | 0.143

[1]
Details | Critical pressure [kPa] | Critical temperature [K]
– | 750 | 864

CCCCCCCCCCCC(=O)OCC(COC(=O)CCCCCCCCCCC)OC(=O)CCCCCCCCCCC [1,2,3-propanetriyl tridodecanoate]
Details | molar heat capacity at constant pressure, [2] [J/K/mol] | thermal conductivity, [1] [W/m/K]
330 K | 1316 | 0.164
335 K | 1323 | 0.163
340 K | 1331 | 0.162
345 K | 1340 | 0.161
350 K | 1350 | 0.161
355 K | 1361 | 0.16
360 K | 1372 | 0.16
365 K | 1384 | 0.159
370 K | 1396 | 0.159
375 K | 1407 | 0.158
380 K | 1418 | 0.158
385 K | 1428 | 0.157
390 K | 1438 | 0.156
395 K | 1446 | 0.155
400 K | 1453 | 0.154
405 K | 1458 | 0.153
410 K | 1461 | 0.151

[1]
Details | Critical pressure [kPa] | Critical temperature [K]
– | 650 | 899
